Values joined by “and” are separate entries in the source; they are usually repeats but may differ in a detail not shown here. Equal values may be shown once. Read-outs that look alike come from different tables or passages of the source.
CC(C)NC(=O)COc1cccc(-c2nc(Nc3ccc4[nH]ncc4c3)c3ccccc3n2)c1 [Belumosudil, 2-{3-[4-(1H-indazol-5-ylamino)-2-quinazolinyl]phenoxy}-N-(propan-2-yl) acetamide]
Thrombocytosis: # Events (Cohort 3 400 mg QD): 0
Thrombocytosis: Affected/At Risk (Cohort 3 400 mg QD): 0/21
Thrombocytosis: Affected/At Risk (%) (Cohort 3 400 mg QD): (0%)
Tinea pedis: # Events (Cohort 3 400 mg QD): 0
Tinea pedis: Affected/At Risk (Cohort 3 400 mg QD): 0/21
Tinea pedis: Affected/At Risk (%) (Cohort 3 400 mg QD): (0%)
Tooth fracture: # Events (Cohort 3 400 mg QD): 0
Tooth fracture: Affected/At Risk (Cohort 3 400 mg QD): 0/21
Tooth fracture: Affected/At Risk (%) (Cohort 3 400 mg QD): (0%)
Total Other Adverse Events: Affected/At Risk (Cohort 3 400 mg QD): 19/21
Total Other Adverse Events: Affected/At Risk (%) (Cohort 3 400 mg QD): (90.48%)
Transfusion reaction: # Events (Cohort 3 400 mg QD): 0
Transfusion reaction: Affected/At Risk (Cohort 3 400 mg QD): 0/21
Transfusion reaction: Affected/At Risk (%) (Cohort 3 400 mg QD): (0%)
Tremor: # Events (Cohort 3 400 mg QD): 4
Tremor: Affected/At Risk (Cohort 3 400 mg QD): 3/21
Tremor: Affected/At Risk (%) (Cohort 3 400 mg QD): (14.29%)
Type 2 diabetes mellitus: # Events (Cohort 3 400 mg QD): 0
Type 2 diabetes mellitus: Affected/At Risk (Cohort 3 400 mg QD): 0/21
Type 2 diabetes mellitus: Affected/At Risk (%) (Cohort 3 400 mg QD): (0%)
Ulcerative keratitis: # Events (Cohort 3 400 mg QD): 0
Ulcerative keratitis: Affected/At Risk (Cohort 3 400 mg QD): 0/21
Ulcerative keratitis: Affected/At Risk (%) (Cohort 3 400 mg QD): (0%)
Upper respiratory tract infection: # Events (Cohort 3 400 mg QD): 9
Upper respiratory tract infection: Affected/At Risk (Cohort 3 400 mg QD): 7/21
Upper respiratory tract infection: Affected/At Risk (%) (Cohort 3 400 mg QD): (33.33%)
Upper-airway cough syndrome: # Events (Cohort 3 400 mg QD): 1
Upper-airway cough syndrome: Affected/At Risk (Cohort 3 400 mg QD): 1/21
Upper-airway cough syndrome: Affected/At Risk (%) (Cohort 3 400 mg QD): (4.76%)
Urinary retention: # Events (Cohort 3 400 mg QD): 0
Urinary retention: Affected/At Risk (Cohort 3 400 mg QD): 0/21
Urinary retention: Affected/At Risk (%) (Cohort 3 400 mg QD): (0%)
Urinary tract infection: # Events (Cohort 3 400 mg QD): 0
Urinary tract infection: Affected/At Risk (Cohort 3 400 mg QD): 0/21
Urinary tract infection: Affected/At Risk (%) (Cohort 3 400 mg QD): (0%)
Urinary tract pain: # Events (Cohort 3 400 mg QD): 1
Urinary tract pain: Affected/At Risk (Cohort 3 400 mg QD): 1/21
Urinary tract pain: Affected/At Risk (%) (Cohort 3 400 mg QD): (4.76%)
Urine output decreased: # Events (Cohort 3 400 mg QD): 0
Urine output decreased: Affected/At Risk (Cohort 3 400 mg QD): 0/21
Urine output decreased: Affected/At Risk (%) (Cohort 3 400 mg QD): (0%)
Vascular access complication: # Events (Cohort 3 400 mg QD): 0
Vascular access complication: Affected/At Risk (Cohort 3 400 mg QD): 0/21
Vascular access complication: Affected/At Risk (%) (Cohort 3 400 mg QD): (0%)
Vertigo: # Events (Cohort 3 400 mg QD): 0
Vertigo: Affected/At Risk (Cohort 3 400 mg QD): 0/21
Vertigo: Affected/At Risk (%) (Cohort 3 400 mg QD): (0%)
Vision blurred: # Events (Cohort 3 400 mg QD): 4
Vision blurred: Affected/At Risk (Cohort 3 400 mg QD): 4/21
Vision blurred: Affected/At Risk (%) (Cohort 3 400 mg QD): (19.05%)
Vomiting: # Events (Cohort 3 400 mg QD): 4
Vomiting: Affected/At Risk (Cohort 3 400 mg QD): 4/21
Vomiting: Affected/At Risk (%) (Cohort 3 400 mg QD): (19.05%)
Weight decreased: # Events (Cohort 3 400 mg QD): 4
Weight decreased: Affected/At Risk (Cohort 3 400 mg QD): 2/21
Weight decreased: Affected/At Risk (%) (Cohort 3 400 mg QD): (9.52%)
Weight increased: # Events (Cohort 3 400 mg QD): 4
Weight increased: Affected/At Risk (Cohort 3 400 mg QD): 1/21
Weight increased: Affected/At Risk (%) (Cohort 3 400 mg QD): (4.76%)
White blood cell count decreased: # Events (Cohort 3 400 mg QD): 2
White blood cell count decreased: Affected/At Risk (Cohort 3 400 mg QD): 1/21
White blood cell count decreased: Affected/At Risk (%) (Cohort 3 400 mg QD): (4.76%)
ALT/AST increased all grade, No. (Cohort 3 400 mg QD n=21): 2
ALT/AST increased grade ≥3, No. (Cohort 3 400 mg QD n=21): 0
Anemia grade ≥3, No. (Cohort 3 400 mg QD n=21): 0
Any AE, No. of patients (Cohort 3 400 mg QD n=21): 16
Cough all grade, No. (Cohort 3 400 mg QD n=21): 7
Death, No. (Cohort 3 400 mg QD n=21): 2
Diarrhea all grade, No. (Cohort 3 400 mg QD n=21): 7
Drug-related AE, No. (Cohort 3 400 mg QD n=21): 14
Drug-related SAE, No. (Cohort 3 400 mg QD n=21): 0
Dyspnea all grade, No. (Cohort 3 400 mg QD n=21): 7
Dyspnea grade ≥3, No. (Cohort 3 400 mg QD n=21): 4
Fatigue all grade, No. (Cohort 3 400 mg QD n=21): 9
Grade ≥3 AE, No. (Cohort 3 400 mg QD n=21): 14
Headache all grade, No. (Cohort 3 400 mg QD n=21): 6
Hyperglycemia grade ≥3, No. (Cohort 3 400 mg QD n=21): 2
Hypertension all grade, No. (Cohort 3 400 mg QD n=21): 4
Hypoxia grade ≥3, No. (Cohort 3 400 mg QD n=21): 2
Lung infection or pneumonia grade ≥3, No. (Cohort 3 400 mg QD n=21): 2
Nausea all grade, No. (Cohort 3 400 mg QD n=21): 8
Peripheral edema all grade, No. (Cohort 3 400 mg QD n=21): 6
SAE, No. (Cohort 3 400 mg QD n=21): 12
URI all grade, No. (Cohort 3 400 mg QD n=21): 7
Cytomegalovirus (CMV) infection or reactivation (Example 1): no reported CMV infection or reactivation
Patients who discontinued because of potentially drug-related AEs (Example 1): Three
Cytomegalovirus (CMV) infection or reactivation (Example 1, listed as belumosudil): No cases
AE cough, patients (Total N=54): 22%
AE diarrhea, patients (Total N=54): 33%
AE dyspnea, patients (Total N=54): 30%
AE fatigue, patients (Total N=54): 33%
AE headache, patients (Total N=54): 24%
AE hypertension, patients (Total N=54): 20%
AE increased liver function tests, patients (Total N=54): 33%
AE nausea, patients (Total N=54): 33%
AE peripheral edema, patients (Total N=54): 24%
AE upper respiratory infection, patients (Total N=54): 46%
ALT/AST increased all grade, No. (Total N=54): 18
ALT/AST increased grade ≥3, No. (Total N=54): 4
Anemia grade ≥3, No. (Total N=54): 3
Any AE, No. of patients (Total N=54): 53
Cough all grade, No. (Total N=54): 12
Death, No. (Total N=54): 2
Diarrhea all grade, No. (Total N=54): 18
Drug-related AE, No. (Total N=54): 30
Drug-related SAE, No. (Total N=54): 0
Dyspnea all grade, No. (Total N=54): 16
Dyspnea grade ≥3, No. (Total N=54): 7
Fatigue all grade, No. (Total N=54): 18
Grade ≥3 AE, No. (Total N=54): 33
Grade ≥3 AE, patients (Total N=54): Sixty-one
Grade ≥3 cytopenias, patients (Total N=54): 4%
Grade ≥3 dyspnea, patients (Total N=54): 13%
Grade ≥3 hyperglycemia, patients (Total N=54): 7%
Grade ≥3 hypoxia, patients (Total N=54): 7%
Grade ≥3 increased liver function tests, patients (Total N=54): 7%
Headache all grade, No. (Total N=54): 13
Hyperglycemia grade ≥3, No. (Total N=54): 4
Hypertension all grade, No. (Total N=54): 11
Hypoxia grade ≥3, No. (Total N=54): 4
Lung infection or pneumonia grade ≥3, No. (Total N=54): 5
Nausea all grade, No. (Total N=54): 18
Peripheral edema all grade, No. (Total N=54): 13
SAE, No. (Total N=54): 23
Serious AE dyspnea, patients (Total N=54): 7%
Serious AE hypoxia, patients (Total N=54): 4%
Serious AE influenza-like illness, patients (Total N=54): 4%
Serious AE lung infection, patients (Total N=54): 6%
Serious AEs, patients (Total N=54): 43%
URI all grade, No. (Total N=54): 25
Patients with dose interruptions (all): 41%
Patients with dose reductions (all): 9%
Patients who died during the study (all in cohort 3, none attributed to belumosudil): Four
Eyelid margin crusting: Affected/At Risk (in vivo): 1/17 and 0/16 and 0/21
Median relative dose intensity (overall): 98%
Median duration of dose interruption (range, 2-39 days): 10 days
Median duration of dose reduction (range, 21-859 days): 97 days

Reference: US20250255867A1 (Kadmon Corporation, LLC, priority 2022, published 2025)
